Like-named read-outs stand apart in the source and are kept apart here.
How the values were obtained:
Assay type in all cases: cell-based
[1] = tested on: Pseudomonas aeruginosa (ATCC 15442); assay: Microtiter test of biocidal efficacy and synergy (MIC/MBC, Kull K value), Example 1
Experimental: An 8X stock solution of DBDCB was prepared by dissolving about 3.2 grams (g) of 20% active DBDCB in about 4 ml of methanol and diluting the volume up to about 100 ml with deionized water. The DBDCB used in the examples was obtained from Calgon Corporation, Pittsburgh, PA, as Merguard® 1200. A Triclosan 4X stock solution was prepared by dissolving about 0.16g of about 99% active Triclosan in about 5 ml of methanol and diluting the volume up to about 100 ml with deionized water. The Triclosan was obtained from Ciba Geigy as Irgasan® DP 300.
Two microtiter plates were prepared for use in the example, each microtiter plate having 8 rows, A-H, and 12 columns, 1-12. The amount of each biocide in each well of the plates is depicted below.
The amount of biocide in each well of the second microtiter plate of each set was a follows: TABLE 2
(§1) The minimum inhibitory concentration (MIC) for each biocide combination against Ps. aeruginosa was determined. The MIC is the least amount of biocide needed to prevent growth in the well, with growth being defined as turbidity in the medium or a "pellet" of cells which came out of the medium and settled at the bottom of the well.
Additional plates were then subcultured from the MIC plates at 24 hours following biocide addition. Subculturing was done to determine the minimum biocidal concentration (MBC). […]

[2] = tested on: Candida albicans (ATCC 10231); assay: Microtiter test of biocidal efficacy and synergy (Kull K value), Example II, yeast; settings: ATCC10231, 120 h
Experimental: as §1
(§2) Additional plates were then subcultured from the MIC plates at 24 hours following biocide addition. Subculturing was done to determine the minimum biocidal concentration (MBC). The MBC is the lowest concentration of biocide that results in no growth after subculturing and subsequent incubation.
All of the microtiter plates including the MIC plates and the MBC plates were incubated for 24 hours at 37°C. Following the 24 hour incubation period, the presence or absence of growth in each well of the plates was determined. Growth in the microtiter plates was determined with a Dynatech MR-5000 microplate reader, available from Dynatech Laboratories, Chantilly, VA, USA, the use of which will be familiar to one having ordinary skill in the art. The presence or absence of growth in each well, along with the concentration of biocide in each well, was then used to determine the synergistic properties of the biocide combinations. The synergistic properties were evaluated by determining the Kull value, or K value. […]

[3] = tested on: Pseudomonas aeruginosa (ATCC 15442); assay: Microtiter test of biocidal efficacy and synergy (Kull K value), Example II, bacterium
Experimental: as §1, §2
All of the microtiter plates including the MIC plates and the MBC plates were incubated for 24 hours at 37°C. Following the 24 hour incubation period, the presence or absence of growth in each well of the plates was determined. Growth in the microtiter plates was determined with a Dynatech MR-5000 microplate reader, available from Dynatech Laboratories, Chantilly, VA, USA, the use of which will be familiar to one having ordinary skill in the art. The presence or absence of growth in each well, along with the concentration of biocide in each well, was then used to determine the synergistic properties of the biocide combinations. The synergistic properties were evaluated by determining the Kull value, or K value. The method for calculating K value is well known to those skilled in the art. In this example, the K value was determined by the following formula: K=([DBDCB] In Combination)/([DBDCB] Alone)+([Triclosan] In Combination)/([Triclosan] Alone) [formula] where "[DBDCB]
A K value of less than 1 indicates synergy between the two biocides, a K value of greater than 1 indicates antagonism between the two biocides, and a K value equal to 1 indicates an additive effect of the two biocides.
Example I was repeated with the following differences. The DBDCB was tested at the following concentrations: 200, 100, 50, 25, 12.5, 6.25 and 3.125, with concentration given in ppm active. […]

Row | Structure (SMILES) | MIC ([1]; ATCC15442, concentration of DBDCB which, used alone, resulted in inhibition of microbial growth, ppm active, 24 hours at 37°C, read-out: [DBDCB] Alone) [µg/mL] | MIC ([2]; DBDCB alone, inhibition of microbial growth, ppm active, 30°C for 5 days, read-out: [DBDCB] Alone) [µg/mL] | MIC ([3]; DBDCB alone, inhibition of microbial growth, ppm active, 35°C for 24 hours) [ppm] | MIC ([3]; Pseudomonas aeruginosa, ATCC15442, 24 h, DBDCB alone, inhibition of microbial growth, ppm active, 35°C for 24 hours, read-out: [DBDCB] Alone) [µg/mL] | MIC ([1]; ATCC15442, 24 h, read-out: [Triclosan] Alone) [µg/mL] | MIC ([2]; read-out: [Triclosan] Alone) [µg/mL] | MIC ([3]; Pseudomonas aeruginosa, ATCC15442, 24 h, read-out: [Triclosan] Alone) [µg/mL]
1 | N#CCCC(Br)(C#N)CBr (stereo not shown) [DBDCB, 1,2-dibromo-2,4-dicyanobutane] | 200 | 100 | 200 | 100 |  |  | 
2 | Oc1cc(Cl)ccc1Oc1ccc(Cl)cc1Cl [Triclosan, 2,4,4'-trichloro-2'-hydroxydiphenyl ether] |  |  |  |  | 100 | 12.5 | > 100

Source: patent EP0919125A1, “Synergistic antimicrobial composition” (Calgon Corporation, priority 1997, dated 1999)
